{"source": "paper PMC11189555", "about": "“Aryl amino acetamides prevent Plasmodium falciparum ring development via targeting the lipid-transfer protein PfSTART1” (Nature Communications, 2024)", "key": {"[1]": {"system": "CR-N309K parasites", "assay": "Growth inhibition assay (72 h, LDH activity)", "assay_type": "cell-based, Plasmodium falciparum", "conditions": "for inhibition at 5 µM: read-out: NORMALISED (growth inhibition, LDH absorbance)", "method": "(§1) Parasite growth assays with inhibitory compounds were performed as per[11] and are fully described in the Supplementary Information.\n(§2) Molecular biology and transfection of P. falciparum: CRISPR method.\n(§3) The full 5’ homology region of pfstart1 (either WT, N309K or N330K) was amplified from pPfSTART1-HA-2A-Neo-glmS with the same 5’ BglII primer and a new 3’ primer that replaced with PstI with SpeI and introduced a stop codon. The PCR product was then digested with BglII and SpeI and inserted into similarly digested p1.2 parasite vector2. The p1.2 vector had previously been inserted with a homology region amplified from the 3’ end of the pfstart1 gene (3’HB) to form a second homology block for double recombination. The primers used to amplify 3’HB are listed primers listed in […]\n(§4) 60 μg of p1.2-PfSTART1(WT/N309K/N330K) plasmid was linearised with KasI, precipitated in 3 M sodium acetate and ethanol (70% final concentration) overnight at -20°C. The DNA pellet was washed in cold 70% ethanol and resuspended in cytomix 3.\n(§5) 50 μ M of crRNA ( Table S 2) and 50 μM of tracRNA (Integrated DNA Technologies) were allowed to form a duplex (5 min at 95°C), and Cas9 enzyme (Integrated DNA Technologies) was added, and incubated for 20 min at room temperature 4. This crRNA -tracRNA -Cas9 mix was added to each DNA preparation and transfected to 3D7 ring parasites using the Bio -Rad Gene Pulser at 310 V and 950 μF.\n(§6) Parasites containing the transfected DNA were selected using 2.5 nM WR99210 (Jacobus). Parasites lines were cloned using limiting dilution. Correct integration was tested by PCR (using primer START_5’UTR.F and START_Int.R1 , Table S 2), and sequencing was done using the primers START_3F and START_Int.R2 (Table S 2).\n(§7) Growth inhibition assays. Synchronised ring-stage parasites (0.3-0.6% parasitemia, 2% haematocrit) were grown for 72 h in a serial-dilution of the compound under […]\n(§8) and compound 4. Note that M-833 was first purchased from MolPort (MolPort -002-267-916) then made in-house at WEHI: the differences observed in EC50s across experiments are attributed to the different batches of M -833. For some experiments, 0, 0.25 or 2.5 mM of glucosamine (GlcN) was also added. Experiments were set up in technical duplicates or triplicates. Following a freeze -thaw cycle, lactate dehydrogenase (LDH) activity was assessed as an indicator of parasite growt h 5. 30 μL of parasite culture was incubated for 30 min in the dark with 75 μL Malstat mixture (0.1 M Tris pH 9.0, 20 g/L lactic acid, pH 7.5, 0.2% Triton-X100, 0.5 g/L acetylpyridine adenine dinucleotide (APAD, Sigma), 200 μg/mL nitroblue tetrazolium (NBT; Sigma), 1 μg/mL phenozine ethosulfate (PES; Sigma)). Absorbance was then measured at 650 nm, transformed using the formula below, plotted against the logarithm of the concentrations, and a non-linear regression (log(inhibitor) vs. response, variable slope) was calculated using GraphPad Prism to assess the half-inhibitory […]\n(§9) Growth inhibition % = (1 − average(sample)− average(uRBC)) ∗ 100 […]\n(§10) The DMSO samples were also used to assess growth of parasite in the presence of 0.25 and 2.5 mM GlcN (normalised by DMSO in 0 mM GlcN).\n(§11) Egress, invasion & recovery assay. To measure egress, invasion and follow up recovery in the presence of different compounds, we adapted the method developed in6, using Hyp1-Nluc parasites7. These parasites episomally express the exported PEXEL protein Hyp1 (PF3D7_0113300) tagged with a NanoLuc luciferase (NLuc) and were selected with 2.5 nM WR99210 (Jacobus). Highly synchronised schizonts were obtained using ML10 (LifeArc) and sorbitol synchronisation, and Percoll-purified (the culture was gently layered over 67% Percoll (Cytiva) in RPMI, and centrifuged for 15 min at 1500 g and the schizont layer was collected and washed). In a 96-well plate, […]"}, "[2]": {"system": "CR-N330K parasites", "assay": "Growth inhibition assay (72 h, LDH activity)", "assay_type": "cell-based, Plasmodium falciparum", "method": "as §1, §2, §3, §4, §5, §6, §7, §8, §9, §10, §11"}, "[3]": {"conditions": "0.25 mM GlcN, dilution point 1 of 10, starting concentration 5 uM"}, "[4]": {"conditions": "0.25 mM GlcN, dilution point 2 of 10 from starting concentration 5 uM"}, "[5]": {"conditions": "0.25 mM GlcN, dilution point 3 of 10 from starting concentration 5 uM"}, "[6]": {"conditions": "0.25 mM GlcN, dilution point 6 of 10 from starting concentration 5 uM"}, "[7]": {"conditions": "2.5 mM GlcN, dilution point 1 of 10, starting concentration 5 uM"}, "[8]": {"conditions": "2.5 mM GlcN, dilution point 2 of 10 from starting concentration 5 uM"}, "[9]": {"conditions": "2.5 mM GlcN, dilution point 3 of 10 from starting concentration 5 uM"}, "[10]": {"conditions": "2.5 mM GlcN, dilution point 4 of 10 from starting concentration 5 uM"}, "[11]": {"conditions": "2.5 mM GlcN, dilution point 5 of 10 from starting concentration 5 uM"}, "[12]": {"conditions": "2.5 mM GlcN, dilution point 6 of 10 from starting concentration 5 uM"}}, "note": "Where “and” joins values, the source holds several entries; their conditions need not be identical. Equal values may be shown once. Read-outs that look alike come from different tables or passages of the source."}
{"smiles": "CC(C)(Nc1ccc(Cl)c(S(=O)(=O)N2CCOCC2)c1)C(=O)Nc1ccc(F)c(Cl)c1", "note": "[W-991]", "values": [{"measurement": "NORMALISED (growth inhibition, LDH absorbance vs DMSO and uRBC)", "setting": "[1]; 0 mM GlcN, W991 at 185.185 nM", "value": "14.1711 and 15.2813"}, {"measurement": "NORMALISED (growth inhibition, LDH absorbance vs DMSO and uRBC)", "setting": "[1]; 0 mM GlcN, W991 at 555.556 nM", "value": "55.508 and 36.7800"}, {"measurement": "NORMALISED (growth inhibition, LDH absorbance vs DMSO and uRBC)", "setting": "[1]; 0 mM GlcN, W991 at 1666.67 nM", "value": "87.9679 and 76.9970"}, {"measurement": "NORMALISED (growth inhibition, LDH absorbance vs DMSO and uRBC)", "setting": "[1]; 0 mM GlcN, W991 at 5000 nM", "value": "96.4706 and 92.1927"}, {"measurement": "NORMALISED (growth inhibition, LDH absorbance)", "setting": "[1]; [3]", "value": 94.7776}, {"measurement": "NORMALISED (growth inhibition, LDH absorbance)", "setting": "[1]; [4]", "value": "100.739 and 90.0516"}, {"measurement": "NORMALISED (growth inhibition, LDH absorbance)", "setting": "[1]; [5]", "value": "80.0443 and 56.9500"}, {"measurement": "NORMALISED (growth inhibition, LDH absorbance)", "setting": "[1]; 0.25 mM GlcN, dilution point 5 of 10 from starting concentration 5 uM", "value": "17.9601 and 13.8403"}, {"measurement": "NORMALISED (growth inhibition, LDH absorbance)", "setting": "[1]; [6]", "value": "8.426 and 8.7470"}, {"measurement": "NORMALISED (growth inhibition, LDH absorbance)", "setting": "[1]; [7]", "value": 83.5476}, {"measurement": "NORMALISED (growth inhibition, LDH absorbance)", "setting": "[1]; [8]", "value": 82.9906}, {"measurement": "NORMALISED (growth inhibition, LDH absorbance)", "setting": "[1]; [9]", "value": "95.6522 and 78.1705"}, {"measurement": "NORMALISED (growth inhibition, LDH absorbance)", "setting": "[1]; [10]", "value": "71.5415 and 48.7789"}, {"measurement": "NORMALISED (growth inhibition, LDH absorbance)", "setting": "[1]; [11]", "value": "41.502 and 22.2365"}, {"measurement": "NORMALISED (growth inhibition, LDH absorbance)", "setting": "[1]; [12]", "value": "17.3913 and 10.0471"}, {"measurement": "NORMALISED (growth inhibition, LDH absorbance)", "setting": "[1]; 2.5 mM GlcN, dilution point 8 of 10 from starting concentration 5 uM", "value": "5.138 and 4.2631"}, {"measurement": "NORMALISED (growth inhibition, LDH absorbance)", "setting": "[1]; 2.5 mM GlcN, dilution point 9 of 10 from starting concentration 5 uM", "value": "11.3967 and 7.51"}, {"measurement": "fold less susceptible than the 3D7 and CR-WT controls", "setting": "[1]; Fig 4C", "value": "around 600 fold"}, {"measurement": "fold sensitised on PfSTART1 knock-down with GlcN", "setting": "[1]; Fig 4C", "value": 5, "unit": "fold"}, {"measurement": "EC50", "setting": "[1]; Fig 4C, 0 mM GlcN, n = 3, read-out: EC50 W-991 (95% confidence interval)", "value": "< 700", "unit": "nM"}, {"measurement": "inhibition at 5 µM", "setting": "[1]; Plasmodium falciparum, 0.25 mM GlcN, dilution point 1 of 10, starting concentration 5 uM", "value": 101, "unit": "%"}, {"measurement": "inhibition at 5 µM", "setting": "[1]; Plasmodium falciparum, 2.5 mM GlcN, dilution point 1 of 10, starting concentration 5 uM", "value": 94.5, "unit": "%"}, {"measurement": "EC50", "setting": "[1]; Plasmodium falciparum, read-out: EC50 W-991 (95% confidence interval), Fig 4C, 0 mM GlcN, n = 3", "value": 687, "unit": "nM"}, {"measurement": "EC50", "setting": "[1]; Plasmodium falciparum, read-out: EC50 W-991 (95% confidence interval), Fig 4C, 0.25 mM GlcN, n = 3", "value": 362, "unit": "nM"}, {"measurement": "EC50", "setting": "[1]; Plasmodium falciparum, read-out: EC50 W-991 (95% confidence interval), Fig 4C, 2.5 mM GlcN, n = 3", "value": 137, "unit": "nM"}, {"measurement": "EC50", "setting": "[1]; read-out: EC50 W-991 (95% confidence interval), Fig 4C, 0 mM GlcN, n = 3", "value": 687, "unit": "nM"}, {"measurement": "NORMALISED (growth inhibition, LDH absorbance)", "setting": "[2]; 0 mM GlcN, dilution point 1 of 10, starting concentration 5 uM", "value": "89.5809 and 91.9275"}, {"measurement": "NORMALISED (growth inhibition, LDH absorbance)", "setting": "[2]; 0 mM GlcN, dilution point 2 of 10 from starting concentration 5 uM", "value": "82.5498 and 75.3344"}, {"measurement": "NORMALISED (growth inhibition, LDH absorbance)", "setting": "[2]; [3]", "value": 90.7025}, {"measurement": "NORMALISED (growth inhibition, LDH absorbance)", "setting": "[2]; [4]", "value": 83.8227}, {"measurement": "NORMALISED (growth inhibition, LDH absorbance)", "setting": "[2]; [5]", "value": "67.3993 and 45.0538"}, {"measurement": "NORMALISED (growth inhibition, LDH absorbance)", "setting": "[2]; [6]", "value": "5.889 and 5.4992"}, {"measurement": "NORMALISED (growth inhibition, LDH absorbance)", "setting": "[2]; [7]", "value": "66.3651 and 90.1101"}, {"measurement": "NORMALISED (growth inhibition, LDH absorbance)", "setting": "[2]; [8]", "value": "62.0066 and 84.8366"}, {"measurement": "NORMALISED (growth inhibition, LDH absorbance)", "setting": "[2]; [9]", "value": "63.3224 and 83.4457"}, {"measurement": "NORMALISED (growth inhibition, LDH absorbance)", "setting": "[2]; [10]", "value": "52.3849 and 74.2725"}, {"measurement": "NORMALISED (growth inhibition, LDH absorbance)", "setting": "[2]; [11]", "value": "40.7072 and 51.6938"}, {"measurement": "NORMALISED (growth inhibition, LDH absorbance)", "setting": "[2]; [12]", "value": "28.9474 and 29.6954"}]}
